Where a name gives a salt, the structure may show the parent alone. Read-outs that look alike come from different tables or passages of the source.
Legend:
[1] = tested on: SNU423 hepatocellular carcinoma cells; assay: Alamar Blue cell growth inhibition, SNU423; format: cell-based
Method: Cell growth was measured by Alamar Blue™ staining and the OD absorbance at 570 and 600 nm was determined by a microplate reader. The percentage of cell growth inhibition was calculated and compared with the control cells that were treated with 0.1% DMSO, the vehicle for the stilbene compounds.
(§1) Various cancer cell lines were grown in 96-well plates for drug sensitivity assays. Once cells achieved 50% confluence, the incubation media was changed to the same cell growth media with different concentrations of the tested compounds or vehicle alone. Cells were then incubated for 48 hours before the cell growth inhibition study. To determine the degree of cell growth inhibition, 1/10 volume of Alamar Blue™ solution was added to each well and optical density (OD) at 570 and 600 nm was determined. The percentage of growth inhibition was calculated according to the manufacturer's formula as follows: The percentage of growth is [(117216×A570)−(80586×A600)]/[(117216×A^o570)−(80586×A^o600)]×100. In this formula, A570 is the absorbance of the treated samples at 570 nm; A600 is the absorbance of the treated samples at 600 nm; A^o570 is the absorbance of the […] samples at 570 nm; and A^o600 is the absorbance of the untreated samples at 600 nm. The two constants, 117216 and 80586, are the extinction coefficients of Alamar Blue™ at 570 and 600 nm respectively. Each concentration was repeated in triplicate to minimize the error.
(§2) We first tested the cytotoxic effect of various stilbene derivatives for their in vitro efficacy of suppressing tumor cell proliferation. Cells were first plated in 96-well plates at 50% confluence and treated with 0, 0.01, 0.03, 0.1, 0.3, 1.0, 3.0, 10 μM concentrations of stilbene derivatives for 48 hours in triplicate. Alamar Blue™ reagent was added into each well at 1/10 volume and incubated for 2 hours before quantification of the absorbance at 570 and 600 nm.

[2] = tested on: MDA-MB231 breast cancer cells; assay: Alamar Blue cell growth inhibition, MDA-MB231; format: cell-based; conditions: Homo sapiens, MDA-MB-231; MDA-MB231
Method: Cell growth was measured by Alamar Blue™ staining and the percentage of cell growth inhibition was calculated and compared with control cells that were treated with 0.1% DMSO, the vehicles for the stilbene compounds.
as §1, §2

[3] = tested on: MiaPaCa2 pancreatic cancer cells; assay: Alamar Blue cell growth inhibition, MiaPaCa2; format: cell-based; conditions: Homo sapiens, MIA PaCa-2; MiaPaCa2
Method: as §1, §2

[4] = tested on: SKOV3 ovarian cancer cells; assay: Alamar Blue cell growth inhibition, SKOV3; format: cell-based; conditions: for effective / active concentration: SKOV3, 48 hours
Method: Cells were incubated with various concentrations of the compounds for 48 hours. Cell growth was measured by Alamar Blue™ staining and the percentage of cell growth inhibition was calculated and compared with the control cells that were treated with 0.1% DMSO, the vehicle for the stilbene compounds.
as §1

[5] = in vivo; cited from earlier work
Tubulin (>99% pure) = assay: tubulin polymerization assay (OD 340 nm); format: biochemical; conditions: OD340 nm; nocodazole and paclitaxel 10 μM
Method: FIG. 3a-d. Stilbenes inhibit tubulin polymerization. (a) Effect of stilbene 4a. Pure tubulin was incubated with various concentrations of stilbene 4a, 10 μM nocodazole, and 10 μM paclitaxel in the polymerization buffer. The OD at 340 nm was monitored every minute by SpectraMAX 250 and plotted against time. (b) Effect of stilbene 4c. (c) Comparison of same concentrations of stilbenes 4a, 4a trans, 4c and 4c trans with control. […] Tubulin was incubated with [^3H]-colchicine and various concentrations of different stilbenes for 20 min. Tubulin was then separated from the unbound [^3H]-colchicine by Microcon-30 and washed three times with PBS. The radioactivity of the tubulin was counted. […] All experiments were done in triplicates.
The tubulin polymerization assay kit was purchased from Cytoskeleton (Denver, Colo.). Tubulin (>99% pure) was mixed with general tubulin buffer (GTB, 80 mM PIPES pH 6.9, 2 mM MgCl2, 0.5 mM EGTA, and 1 mM GTP) in a 96-well plate at 37° C. Absorbance at 340 nm was measured every 1 min for 60 min by SpectraMAX 250 (Molecular Devices, Sunnyville, Calif.). Analysis of the results was performed by SoftMAX Pro version 1.2.0 from the same company.

[6] = tested on: UCI101 ovarian cancer cells; assay: Western blot of signal transduction events, UCI101; format: cell-based; conditions: for phosphorylation of Chk1: 36 hours
Method: All these agents are microtubule interfering agents but with different binding sites. Cells were harvested at 0, 4, 8, 16 and 36 hours after drug treatment for Western blot analysis. […] Phosphorylation of both Cdc25C and Cdc2 disappeared after 16 hours and slightly recovered at 36 hours. […] Akt phosphorylation decreased after 16 hours of treatment.
In order to understand the mechanism of resistance of stilbenes, various signal transduction pathways were investigated to examine how cells respond to stilbene treatment. UCI101 ovarian cancer cells were treated with stilbenes 4a, 4c or paclitaxel (Taxol) at 0.1 μM for 0, 4, 8, 16 and 36 hours. Cells were harvested for Western blotting. Changes in the kinases involved in cell cycle progression from G2-M transition were first determined in Cdc2, Cdc25c, and mitotic spindle check point regulator BubR1. […] 36 hours after treatment, rephosphorylation of Cdc2 was observed. […] The higher molecular weight isomer of Cdc25c, the mitotic form, increased at 16 and 36 hours. […] A similar study was then performed with other microtubule interfering agents such as combretastatin A4, 13a and vincristine for comparison. A similar trend was observed among these three microtubule interfering agents (FIG. 18).

[7] = acute toxicity in dose escalating study; format: in vivo, mice
Method: Acute toxicity in dose escalating study: We investigated the efficacy of stilbene 4a in vivo using mouse xenograft model. First we determined the maximal tolerated dose of stilbene 4a since it has a higher potency in vitro. […] Subsequently mice fully recovered 30 min after injection.

HL60 cells = conditions: cited from earlier work; for IC50: read-out: IC50, induction of HL60 apoptosis
[8] = tested on: UCI101 ovarian cancer cells; assay: Alamar Blue cell growth inhibition, UCI101; format: cell-based; conditions: UCI101, 48 hours
Method: Cell growth was measured by AlamarBlue™ staining and the percentage of cell growth inhibition was calculated and compared with the control cells that were treated with 0.1% DMSO, the vehicles for the stilbene compounds.
Cells were treated with the tested drug for 2 days before analysis of cell growth by Alamar Blue™ staining. Cells treated with 0.1% DMSO were used as control and set as 100%.
(a) In vitro sensitivity of UCI101 cells toward three potential stilbene prodrugs, 5a-c, was tested in 96-well plates using Alamar Blue™ assays to determine cell growth inhibition. […] (b) 5b induces cell cycle change and apoptosis in UCI101 cells. Cells were incubated with 5b at 1, 3, 10 μM for 16 hours followed by PI staining and flow cytometry analysis. A subG0/1 population, representing apoptotic cells, appeared along with a decrease of the G1/G2 ratio after cells were treated with 3 μM 5b. Higher concentration (10 μM) of 5b completely killed cells, as was the case with stilbene 4a at […]. (c) Cells treated with stilbene 4a and 5b were stained with phospho-histone 3B, a mitotic marker. The positive signals of phospho-histone 3B were shown in green and nuclei were stained with DAPI in blue. […] (d) In vivo efficacy of 5b compared with stilbene 4a. Nude mice were injected with UCI101 ovarian cancer cells and treated with 7 doses of 5b,c or stilbene 4a every 2-3 days. Tumor volume was calculated and plotted against days.
as §1, §2

MDA-MB231 cells = assay: immunofluorescent staining of tubulin, MDA-MB231; format: cell-based; conditions: CA4 10 nM, stilbene 4a 100 nM, vincristine 100 nM, 5b 3 μM; 16 hours
Text: Nuclei were stained with 4′,6-diamidino-2-phenylindole (DAPI). Control cells show the reticular pattern of the microtubule network.

COc1cc(/C=C\c2ccc(OC)c(N)c2)cc(OCCO)c1 [10a, (Z)-2-{3-[2-(3-Amino-4-methoxy-phenyl)-vinyl]-5-methoxy-phenoxy}-ethanol, hydrochloride]
IC50 ([1]; Homo sapiens, SNU-423, 48 h, read-out: IC50 (50% growth inhibition), SNU423, 48 hours): ≤ 300 nM
IC50 ([1]; read-out: IC50 (50% growth inhibition), SNU423, 48 hours, hydrochloride): 300 nM
IC50 [2]: 80 nM
IC50 [3]: 300 nM
activity ([4]; SKOV3): also effective
effective / active concentration [4]: 0.1 µM

COc1cc2c(c(OC)c1OC)-c1ccc(OP(=O)(O)O)cc1[C@@H](NC(C)=O)CC2 [ZD6126]
toxicity in phase I clinical trials [5]: cardiac toxicity (such as decreasing left ventricular ejection fraction) and dose limiting toxicity were observed

CC(=O)O[C@H]1C(=O)[C@@]2(C)[C@H]([C@H](OC(=O)c3ccccc3)[C@]3(O)C[C@H](OC(=O)[C@H](O)[C@@H](NC(=O)c4ccccc4)c4ccccc4)C(C)=C1C3(C)C)[C@]1(OC(C)=O)CO[C@@H]1C[C@@H]2O [paclitaxel, reference compound]
effect on tubulin polymerization (Tubulin (>99% pure)): enhanced
phosphorylation of Cdc2 at Tyr15 ([6]; 0.1 μM, 16 hours): decreased dramatically
phosphorylation of Chk1 [6]: do not cause more phosphorylation of Chk1

COc1cc(/C=C\c2ccc(OC)c(N)c2)cc(OC)c1 [stilbene 5c, cis-3,4′,5-trimethoxy-3′-aminostilbene]
acute toxicity at 6 or 33 mg/kg ([7]; 6 or 33 mg/kg intravenously): did not cause any acute toxicity
acute toxicity at 72 and 97 mg/kg ([7]; 72 and 97 mg/kg intravenously): transient weakness as shown by dragging feet and sluggish movement
time to full recovery after injection ([7]; 72 and 97 mg/kg intravenously): 30 min
cytotoxicity under overexpression of MDR gene (HL60 cells; Roberti et al.): not affected by overexpression of multiple-drug resistant (MDR) gene
IC50 (HL60 cells; Roberti et al.): 30 nM

COc1cc(/C=C\c2ccc(OC)c(O)c2)cc(OC)c1 [stilbene 6c, cis-3,4′,5-trimethoxy-3′-hydroxystilbene]
cytotoxicity under overexpression of MDR gene (HL60 cells): not affected by overexpression of multiple-drug resistant (MDR) gene
IC50 (HL60 cells; Roberti et al.): 30 nM

CC[C@]1(O)C[C@H]2CN(CCc3c([nH]c4ccccc34)[C@@](C(=O)OC)(c3cc4c(cc3OC)N(C=O)[C@H]3[C@@](O)(C(=O)OC)[C@H](OC(C)=O)[C@]5(CC)C=CCN6CC[C@]43[C@@H]65)C2)C1 [vincristine, reference compound]
relative potency ([1]; SNU423): equivalent
relative potency / activity [8]: about equal in their potency
IC50 ([4]; Homo sapiens, SK-OV-3, SKOV, read-out: IC50): 50 to 100 nM
effective / active concentration [4]: 0.1 µM
microtubule pattern (MDA-MB231 cells): fine granular pattern without formation of microtubules
phosphorylation of Stat3 ([6]; 0.1 μM): more pronounced
phosphorylation of Chk1 [6]: do not cause more phosphorylation of Chk1
